Test results as given in patent US7511123B2, “Immuno-interactive fragments of the alpha-C subunit of inhibin” (Prince Henry's Institute of Medical Research, priority 1999, dated 2009).

Legend:
[1] = tested on: As #128; assay: RIA (Assay 2): competition with iodinated inhibin for As #128; type: binding, sheep; details: for As#128 ED50: biotinylated peptides, 50% fall in binding of iodinated inhibin; for ED50 values As#128: non-biotinylated peptides, hr-inhibin A as standard
From the text: (§1) This assay was used to determine which peptides compete with iodinated 30 kDa inhibin for As #41, #128 and #1989 (used in the original inhibin RIA, Lapphorn et al., 1989, supra) in a RIA format. This assay identifies those peptides that bind to inhibin-binding antibodies in the antiserum and provides a stricter affinity and specificity assessment in identifying the appropriate epitopes than that found with Assay 1. The competition between peptide and hr-inhibin (used as the standard) was assessed from their ED50 values. The RIA consisted of the competition of iodinated inhibin and either hr-inhibin reference preparation, individual peptides or pools from the 4 peptide regions, with As #41, #128 and in some instances, As #1989. The peptides/inhibin/iodinated inhibin and antisera (at a prescribed dilution) were incubated overnight at 4° C. using standard methodologies. The antibody-bound iodinated inhibin was immunoprecipitated with the addition of an anti-sheep IgG serum raised in goats and the radioactivity was measured in a gamma counter. The concentration of peptide that gives a 50% fall in binding of iodinated inhibin (ED50) was determined and this value was used to give a measure of the affinity of the peptide for the antiserum. This methodology consisted of determining the ED50 of the peptide in the RIA using iodinated human recombinant inhibin as tracer with either As #41, As #128 or As #1989 and graded doses of either hr-inhibin or peptide as described in Example 2.

[2] = tested on: As #128; assay: Two-site assay design: peptides pre-incubated with As #128 coated plate; type: binding, sheep; details: non-biotinylated peptides 0.1-1 micromolar
Description: On the other hand, the IFMA design is based on the total amount of inhibin bound which is a combination of both antibody affinity and concentration. In order to establish to what extent epitopes to these peptides contribute to the overall IFMA, the following two-site assay designs were used.
(i) Peptides #5, #20 and #30 (0, 0.1-1 micromolar) were incubated with the As #128 coated plate for 1.5 hours at RT and the wells washed. The highest dose of peptide used was saturating.
(ii) Hr-Inhibin was then added as a saturating or near saturating dose to the As #128 coated plate and incubated for 2 hours at room temperature and the plate washed.
(iii) Biotinylated As #41 was added to the above wells and incubated for 2 hours at RT. Plates were then washed and counted.

[3] = tested on: As #41; assay: Two-site assay design variation: biotinylated #41 pre-incubated with peptide; type: binding, sheep; details: non-biotinylated peptides 0.1-1.0 micromolar
Description: (iv) In a variation to the above design, biotinylated #41 was pre-incubated with peptide (0.1-1.0 micromolar) for 1.5 hours at room temperature and then added to the As #128 coated plate pre-bound with inhibin as for (i)-(iii). […] Combination of peptide #5 and #30 led to 74% decrease.

[4] = tested on: As #41; assay: RIA (Assay 2): competition with iodinated inhibin for As #41; type: binding, sheep; details: for As#41 ED50: biotinylated peptides, 50% fall in binding of iodinated inhibin; for ED50 values As#41: non-biotinylated peptides, hr-inhibin A as standard
From the text: as §1

[5] = tested on: As #41; assay: Competitive 2-site assay (Assay 3), approach (b); type: binding, sheep; details: biotinylated peptide pools or peptides incubated with iodinated As #41
From the text: (§2) This assay was developed to establish the relative importance of the individual peptides and peptide pools (identified as epitopes in Assays 1 and 2) in the sandwich antibody format used in the IFMA with As #128 as capture antibody and As #41 as detection antibody. Two approaches (a and b) were considered, Approach (a) explores the cross-reaction of peptides with inhibin for the immobilized As #128 while Approach (b) assesses their cross-reaction with inhibin for As #41.
Approach (b). In this approach, the competition of peptides with the As #41 antiserum using the sandwich antibody format was assessed. Hr-Inhibin was initially incubated with the As #128 coated wells for 1 hour at room temperature. The biotinylated peptide pools and/or individual peptides were incubated together with iodinated As #41 for 1 hour and then added to the inhibin bound As #128 coated plates and incubated for 2 hours at room temperature. Plates were then washed to remove any unbound material and the resulting activity was measured in the gamma counter.

[6] = tested on: As#128 and/or As#41; assay: Inhibin IFMA with pre-immunoabsorption of antisera by peptides; type: binding, sheep
From the text: This IFMA is used in the measurement of inhibin in serum from women with ovarian cancer and is presented at this juncture as a reference to the following procedures. The IFMA is a sandwich antibody assay in 96-well microtiter plates. The capture antiserum is As #128 and the labeled antiserum As #41, both raised in sheep to the alpha subunit of human inhibin. Sheep As #128 was also boosted with human recombinant 30-kDa inhibin. The microtiter plates were coated with a caprylic acid IgG cut of antiserum #128. Inhibin standard and serum samples were added and incubated for 2 hours at room temperature. A biotinylated antiserum (As #41) which has been immunopurified by absorption to a column of bovine (alpha)C subunit fusion protein (as previously described, Robertson et al., 1997, supra) followed by elution with a glycine (pH 2.5) buffer, was added to bind to the antibody-bound inhibin (2-hour incubation at room temperature). Fluorescently (Eu) labeled-streptavidin that has a high affinity for biotin is added (30 minutes at room temperature) and the Eu-bound streptavidin is counted in a time-resolved fluorimeter. The Eu measured is proportional to the inhibin bound by the two antisera.
As another approach, the competition of combinations of peptides at a maximum saturating dose was assessed in the IFMA (FIGS. 7-9). […] This suppression in binding provides a measure of the contribution of that particular epitope to the assay.

[7] = tested on: As #1989; assay: RIA (Assay 2): competition with iodinated inhibin for As #1989; type: binding, rabbit; details: for As#1989 ED50: 50% fall in binding of iodinated inhibin; for ED50 values As#1989: non-biotinylated peptides, hr-inhibin A as standard
From the text: as §1

[8] = tested on: PO-12; assay: RIA of Set 2 peptides with PO-12; type: binding, mouse; design: key: ΦΦΦ strong effect; +, Φ weak effect; a) limited binding; details: Set 2 biotinylated peptides 0.8 and 0.08 micromoles/L
Description: (§3) The binding of the 41 biotinylated peptides as set forth in Table 7 (peptide set 2) to the mouse monoclonal antibodies (PO# series) was assessed as follows: b) Assay 2 (radioimrnunoassay, RIA) using iodinated human inhibin A as tracer. Mabs (at an appropriate dilution, see above) were incubated with iodinated human recombinant inhibin in the presence of biotinylated peptides (0.8 and 0.08 micromoles/L final concentration) overnight at room temperature.

[9] = tested on: PO-14; assay: Solid phase binding of Set 2 peptides to PO-14; design: species or system mouse; key: +++; ΦΦΦ strong effect; +, Φ weak effect; details: Set 2 biotinylated peptides 24 micromoles/L
Description: (§4) The binding of the 41 biotinylated peptides as set forth in Table 7 (peptide set 2) to the mouse monoclonal antibodies (PO# series) was assessed as follows:
(§5) a) Assay 1 (solid phase assay). The assay was undertaken as outlined in assay 1 of Example 2. Biotinylated peptides (24 micromoles/L) were initially bound to streptavidin-coated plates. Mab (at an appropriate dilution to give a detectable response, 1:1000, 1:10000 dilution of the culture medium) was then added and incubated for 1.5 hr. The amount of bound Mab was determined using horseradish peroxidase-bound anti-mouse IgG serum and enzyme activity detected at 450-630 nm using an ELISA plate reader.

[10] = tested on: PO-14; assay: RIA of Set 2 peptides with PO-14; type: binding, mouse; design: key: ΦΦΦ strong effect; +, Φ weak effect; a) limited binding; details: Set 2 biotinylated peptides 0.8 and 0.08 micromoles/L
Description: as §3

[11] = tested on: PO-12; assay: Solid phase binding of Set 2 peptides to PO-12; design: species or system mouse; key: +++; ΦΦΦ strong effect; +, Φ weak effect; details: Set 2 biotinylated peptides 24 micromoles/L
Description: as §4, §5

[12] = tested on: As #41; assay: Solid phase assay (Assay 1): biotinylated peptides binding to As #41; design: species or system sheep; key: +++++ major contribution; + minor contribution; details: relative contribution
Description: (§6) This assay is a broad screen of the binding of the 31 biotinylated peptides to As #41 and #128 as recommended by Chiron Mimotopes.
(§7) The biotinylated peptides were initially bound to streptavidin-coated 96-well plates (2 hours at room temperature), antiserum #41 or #128 was then added (2 hours room temperature) to bind to the peptides. Detection of antiserum binding was assessed by a further incubation with an anti-ovine IgG serum labeled with the enzyme, horseradish peroxidase. The enzyme activity was assessed by conversion of a colorless substrate to a colored product that is detected in a spectrophotometer. The enzyme activity measured was proportional to the extent of the binding of the peptides.

[13] = tested on: As #128; assay: Competitive 2-site assay (Assay 3), approach (a); type: binding, sheep; design: key: +++++ major contribution; + minor contribution; details: relative contribution
From the text: as §2
Approach (a). The biotinylated peptide pools and/or individual peptides at various concentrations, in combination with a fixed concentration of hr-inhibin, were incubated for 2 hours with As #128-coated plates. The plates were then washed to remove any unbound material. Iodinated As #41 was then added to bind to the bound hr-inhibin, the plates washed and the bound radioactivity was measured in a gamma counter. The counts measured were proportional to the amount of hr-inhibin bound to both antisera. The possibility that a peptide contained two epitopes capable of linking As #128 and #41 was assessed in the absence of added hr-inhibin.

[14] = tested on: As #128; assay: Solid phase assay (Assay 1): biotinylated peptides binding to As #128; design: species or system sheep; key: +++++ major contribution; + minor contribution; details: relative contribution
Description: as §6, §7

[15] = tested on: R1; assay: Solid phase binding of Set 2 peptides to R1; design: species or system mouse; key: +++; ΦΦΦ strong effect; +, Φ weak effect; details: Set 2 biotinylated peptides 24 micromoles/L
Description: as §4, §5

[16] = tested on: PO-22; assay: Solid phase binding of Set 2 peptides to PO-22; design: species or system mouse; key: +++; ΦΦΦ strong effect; +, Φ weak effect; details: Set 2 biotinylated peptides 24 micromoles/L
Description: as §4, §5

[17] = tested on: PO-6; assay: Solid phase binding of Set 2 peptides to PO-6; design: species or system mouse; key: +++; ΦΦΦ strong effect; +, Φ weak effect; details: Set 2 biotinylated peptides 24 micromoles/L
Description: as §4, §5

[18] = tested on: PO-22; assay: RIA of Set 2 peptides with PO-22; type: binding, mouse; design: key: ΦΦΦ strong effect; +, Φ weak effect; a) limited binding; details: Set 2 biotinylated peptides 0.8 and 0.08 micromoles/L
Description: as §3

Row | Substance | As#128 ED50 [1] [nM] | As#41 ED50 [4] [nM] | As#1989 ED50 ([7]; biotinylated peptides) [nM] | PO-12 RIA [8] | PO-14 SPB [9] | PO-14 RIA [10] | PO-12 SPB [11] | further results
1 | SGSG RTTSDGGYSFKYET [Peptide 30] | 600 | 2500 | <10 | – | – | – | – | ED50 values As#128 [1]: >5000 nM; suppression in binding with As #128 [2]: no suppression at all; inhibition with biotinylated #41 pre-incubated with peptide [3]: 25-30%; ED50 values As#41 [4]: >5000 nM; blocking of As #41 binding to the inhibin-As#128 complex [5]: 50%; % suppression at 2ng inhibin ([6]; As#41 label pre-absorbed with peptide, As#128 coating antibody: buffer): 28%; ED50 with As #1989 ([7]; biotinylated peptides): < 10 nM; affinity to rabbit antiserum #1989 ([7]; in words): high affinity; ED50 values As#1989 [7]: 2500 nM
2 | SGSG QPCCAALPGTMRPL [Peptide 26] | 625 | 1000 | >2500 | ΦΦΦ | +++ | ΦΦΦ | +++ | –
3 | SGSG GTMRPLHVRTTSDG [Peptide 28] | 625 | 4000 | >2500 | – | – | – | – | #41 Antibody screen Assay 1 [12]: +
4 | SGSG PNLSLPVPGAPPTP [Peptide 20] | 20 | 3600 | >2500 | – | – | – | – | ED50 values As#128 [1]: 150 nM; #128 2-site competitive assay Assay 3 [13]: +; suppression in binding with As #128 [2]: 23%; inhibition with biotinylated #41 pre-incubated with peptide [3]: no inhibition; ED50 values As#41 [4]: >5000 nM; % suppression at 2ng inhibin ([6]; As#128 coating antibody pre-absorbed with peptide(s), As#41 label: buffer): 13%; #128 Antibody screen Assay 1 [14]: +; ED50 values As#1989 [7]: >5000 nM
5 | SGSG LPGAQPCCAALPGT [Peptide 25] | 2000 | 5000 | >2500 | ΦΦΦ | +++ | ΦΦΦ | +++ | –
6 | SGSG DGGYSFKYETVPNL [Peptide 31] | 1400 | 2400 | >2500 | – | – | – | – | #41 Antibody screen Assay 1 [12]: +
7 | SGSG PYSLLPGAQPCCAA [Peptide 24] | 900 | 6200 | >2500 | ΦΦΦ | +++ | ΦΦΦ | +++ | –
8 | SGSG MSWPWSPSALRLLQ [Peptide 4] | 3800 | 1300 | >2500 | – | – | – | – | #128 2-site competitive assay Assay 3 [13]: +; R1 SPB [15]: +; PO-22 SPB [16]: +++; #128 Antibody screen Assay 1 [14]: +; PO-6 SPB [17]: +++; PO-22 RIA [18]: ΦΦΦ
